Data as given in patent publication EP2979694B1, “Dimercaptosuccinic acid for the treatment of multidrug resistant bacterial infections” (priority 2014, dated 2016).

Key:
Test in all cases: MIC of carbapenems with or without DMSA
E. coli 162 = format: cell-based; conditions: E. coli 162, NDM-5 + TEM-1 +CTX-M-15; no DMSA; unit assumed
Procedure: (§1) Minimum inhibitory concentrations (MICs) of carbapenems were determined in-vitro with strains (reference and clinical) producing the three main types of class B carbapenemases which are IMP, VIM and NDM, with or without EDTA and DMSA.
(§2) MICs of imipenem was determined for E. coli TOP10 pCR2.1-(PNDM-1-blaNDM-1-bleMBL) in the presence of 0, 0.01, 0.1 or 1 mg/ml of Ca-EDTA or DMSA by using the broth microdilution method in zinc-complemented M9CA minimum medium (SD7025, Euromedex, France).
(§3) A 100 mM DMSA stock solution (Sigma Aldrich, France) (pH 5.0) was prepared in 0.2 M NaOH as recommended (Maiorino et al. 1990) and pH was neutralized to pH 7.0 with NaHCO3 Na2Ca-EDTA (Sigma Aldrich, France) dissolved in water.
(§4) The strains were as follows: VIM producers (n=10), IMP producers (n=9), NDM-1 producers (n=10). The selected concentration of DMSA was 10-fold (0.3 mM) and 100-fold (3 mM) that of the human peak serum concentration after oral administration (Asiedu et al;, 1995), and that of Ca-EDTA was assayed at the fixed concentration of 0.2 mM (Table 2). […]

E. coli COUP = format: cell-based; conditions: NDM-7 + OXA-1 +CTX-M-15, no DMSA, unit assumed
Procedure: as §1, §2, §3, §4

E. cloacae 1008183 = format: cell-based; conditions: E. cloacae 1008183, IMP-1; no DMSA; unit assumed
Procedure: as §1, §2, §3, §4

E. coli 1008077 = format: cell-based; conditions: E. coli 1008077, VIM-1 + TEM-3; no DMSA; unit assumed
Procedure: as §1, §2, §3, §4

E. cloacae 1008085 = format: cell-based; conditions: E. cloacae 1008085, IMP-1; no DMSA; unit assumed
Procedure: as §1, §2, §3, §4

E. cloacae KOW3 = format: cell-based; conditions: E. cloacae KOW3, VIM-1 + CTX-M-15+ TEM-1 + SHV-31; no DMSA; unit assumed
Procedure: as §1, §2, §3, §4

E. coli MAD = format: cell-based; conditions: VIM-1 + CTX-M-3, no DMSA, unit assumed
Procedure: as §1, §2, §3, §4

E. coli BOUN = format: cell-based; conditions: NDM-4 + OXA-1, no DMSA, unit assumed
Procedure: as §1, §2, §3, §4

E. coli 405 = format: cell-based; conditions: E. coli 405, NDM-5 + TEM-1 +CTX-M-15; no DMSA; unit assumed
Procedure: as §1, §2, §3, §4

C. freundii MIG = format: cell-based; conditions: VIM-2 + TEM-1 +OXA-9 + OXA-10, no DMSA, unit assumed
Procedure: as §1, §2, §3, §4

E. coli 1108013 = format: cell-based; conditions: E. coli 1108013, IMP-1 + TEM-1; no DMSA; unit assumed
Procedure: as §1, §2, §3, §4

E. coli IBIS = format: cell-based; conditions: VIM-4, no DMSA, unit assumed
Procedure: as §1, §2, §3, §4

E. cloacae 1008186 = format: cell-based; conditions: E. cloacae 1008186, IMP-1; no DMSA; unit assumed
Procedure: as §1, §2, §3, §4

E. coli FEK = format: cell-based; conditions: NDM-4 + NDM-4 + OXA-1 + CTX-M-15, no DMSA, unit assumed
Procedure: as §1, §2, §3, §4

E. coli DIH = format: cell-based; conditions: VIM-19, no DMSA, unit assumed
Procedure: as §1, §2, §3, §4

E. cloacae 396715 = format: cell-based; conditions: E. cloacae 396715, VIM-1; no DMSA; unit assumed
Procedure: as §1, §2, §3, §4

E. coli RIC = format: cell-based; conditions: NDM-1 + CMY-16 + OXA-1 + OXA-10, no DMSA, unit assumed
Procedure: as §1, §2, §3, §4

E. coli JAP = format: cell-based; conditions: IMP-1, no DMSA, unit assumed
Procedure: as §1, §2, §3, §4

E. cloacae 1008029 = format: cell-based; conditions: E. cloacae 1008029, VIM-1 + CTX-M-3; no DMSA; unit assumed
Procedure: as §1, §2, §3, §4

E. coli 0404018 = format: cell-based; conditions: E. coli 0404018, VIM-1 + CMY-6; no DMSA; unit assumed
Procedure: as §1, §2, §3, §4

E. coli ALL = format: cell-based; conditions: NDM-1 + TEM-1 +CTX-M-15+OXA-1 + OXA-2, no DMSA, unit assumed
Procedure: as §1, §2, §3, §4

E. coli IR5 = format: cell-based; conditions: E. coli IR5, NDM-1 + TEM-1 +CTX-M-15; no DMSA; unit assumed
Procedure: as §1, §2, §3, §4

E. cloacae TAW = format: cell-based; conditions: IMP-8, no DMSA, unit assumed
Procedure: as §1, §2, §3, §4

K.p. KIE = format: cell-based, K. pneumoniae; conditions: NDM-1 + SHV-38 + CMY-16 + OXA-10, no DMSA, unit assumed
Procedure: as §1, §2, §3, §4

K.p. ROUM = format: cell-based, K. pneumoniae; conditions: VIM, no DMSA, unit assumed
Procedure: as §1, §2, §3, §4

K.p. 6852 = format: cell-based, K. pneumoniae; conditions: K.p. 6852, IMP-1 + SHV-5; no DMSA; unit assumed
Procedure: as §1, §2, §3, §4

K.p. TAW = format: cell-based, K. pneumoniae; conditions: IMP-8 + SHV-5, no DMSA, unit assumed
Procedure: as §1, §2, §3, §4

K.p. OMA1 = format: cell-based, K. pneumoniae; conditions: K.p. OMA1, NDM-1 + TEM-1 +CTX-M-15+ SHV-28 + OXA-1 + OXA-9; no DMSA; unit assumed
Procedure: as §1, §2, §3, §4

K.p. 0709124 = format: cell-based, K. pneumoniae; conditions: K.p. 0709124, IMP-1b + TEM-15; no DMSA; unit assumed
Procedure: as §1, §2, §3, §4

## C[C@@H](O)[C@H]1C(=O)N2C(C(=O)O)=C(S[C@@H]3CN[C@H](C(=O)Nc4cccc(C(=O)O)c4)C3)[C@H](C)[C@H]12 [ETP, ertapenem]
E. coli 162
  MIC: > 32 µg/mL
E. coli COUP
  MIC: 32 µg/mL
E. cloacae 1008183
  MIC: 8 µg/mL
E. coli 1008077
  MIC: > 32 µg/mL
E. cloacae 1008085
  MIC: 8 µg/mL
E. cloacae KOW3
  MIC: > 32 µg/mL
E. coli MAD
  MIC: 0.25 µg/mL
E. coli BOUN
  MIC: 16 µg/mL
E. coli 405
  MIC: > 32 µg/mL
C. freundii MIG
  MIC: 2 µg/mL
E. coli 1108013
  MIC: 32 µg/mL
E. coli IBIS
  MIC: 2 µg/mL
E. cloacae 1008186
  MIC: 32 µg/mL
E. coli FEK
  MIC: > 32 µg/mL
E. coli DIH
  MIC: 8 µg/mL
E. cloacae 396715
  MIC: 2 µg/mL
E. coli RIC
  MIC: 8 µg/mL
E. coli JAP
  MIC: 0.5 µg/mL
E. cloacae 1008029
  MIC: > 32 µg/mL
E. coli 0404018
  MIC: 4 µg/mL
E. coli ALL
  MIC: 16 µg/mL
E. coli IR5
  MIC: 32 µg/mL
E. cloacae TAW
  MIC: 4 µg/mL
K.p. KIE
  MIC: 4 µg/mL
K.p. ROUM
  MIC: > 32 µg/mL
K.p. 6852
  MIC: > 32 µg/mL
K.p. TAW
  MIC: 0.5 µg/mL
K.p. OMA1
  MIC: > 32 µg/mL
K.p. 0709124
  MIC: 32 µg/mL
